From patent publication US9624238B2, “4H-thieno[3,2-C]chromene-based inhibitors of Notum Pectinacetylesterase and methods of their use” (Lexicon Pharmaceuticals, Inc., priority 2011, dated 2017)

Assays:
[1] = target: T1, human notum pectinacetyltransferase (Homo sapiens, UniProt Q6P988); experiment: Binding assay (OPTS esterase substrate, fluorimetric); format: biochemical
T1 construct: made in house; unpurified conditioned medium used
T1 sequence (Q6P988 20-496): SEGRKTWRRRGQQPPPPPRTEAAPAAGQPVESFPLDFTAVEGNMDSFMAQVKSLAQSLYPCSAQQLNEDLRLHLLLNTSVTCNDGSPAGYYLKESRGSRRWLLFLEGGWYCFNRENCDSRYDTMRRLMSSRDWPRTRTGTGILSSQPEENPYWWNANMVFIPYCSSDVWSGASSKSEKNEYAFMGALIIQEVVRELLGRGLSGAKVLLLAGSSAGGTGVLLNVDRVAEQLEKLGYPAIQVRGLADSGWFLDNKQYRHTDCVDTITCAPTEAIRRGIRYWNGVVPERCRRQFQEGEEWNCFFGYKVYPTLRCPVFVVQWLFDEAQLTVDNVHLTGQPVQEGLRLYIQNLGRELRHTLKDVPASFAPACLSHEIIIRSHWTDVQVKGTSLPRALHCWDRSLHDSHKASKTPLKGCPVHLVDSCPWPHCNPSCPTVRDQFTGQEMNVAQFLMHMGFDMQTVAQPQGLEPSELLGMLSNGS
Experimental: Plasmid containing human notum pectinacetyltransferase in pcDNA3.1(+) vector was transfected into HEK (293 cells and clones were selecting by growing in presence of 400 ug/mL of G418. Condition media from these cells was used for the assay.

[2] = target: T1, human notum pectinacetyltransferase; experiment: Reporter assay (CellSensor LEF/TCF-bla FreeStyle 293F cells, Wnt3a and notum conditioned media); format: cell-based
Experimental: Plasmid containing human notum pectinacetyltransferase in pcDNA3.1(+) vector was transfected into HEK (293 cells and clones were selecting by growing in presence of 400 ug/mL of G418. The clone containing highest expression of human notum pectinacetyltransferase in the conditioned media was maintained for all future activity assays. L cells overexpressing and secreting Wnt3a into the conditioned media were purchased from ATCC.
The assay protocol was as follows. […] The cell growth medium consisted of DMEM with 10% Dialyzed FBS, 5 μg/ml Blasticidin (Invitrogen, R210-01), 0.1 mM NEAA, 25 mM HEPES and 1×GPS. Cells were then trypsinized by first rinsing with PBS, followed by addition of 5 mL of trypsin and incubation of plates at room temperature for two minutes. A total of 10 mL of assay media (Opti-MEM, plus 0.5% dialyzed FBS, 0.1 mM NEAA, 1 mM sodium pyruvate, 10 mM HEPES, 1×GPS) was then added per 15 cm plate. Cells were counted and suspended at 0.75 million cells per mL. […] After incubation of cells at 37° C. for 3 hours, 10 μL of 30 mM LiCl in assay medium was added per well, followed by incubation at 37° C. for another 3 hours. […] Ten μL of the Wnt3a/notum pentinacetyltransferase mixture was then transferred from Greiner plates to each well of the 384-well plates containing the CellSensor cells.

[3] = given as numeric bound above the legend's highest class
[4] = given as numeric bound above the legend's classes
[5] = given as a numeric bound above the legend's range

Structure (SMILES)	IC50 ([1]; class symbols) [nM]	EC50 ([2]; class symbols) [nM]	also measured
O=C(O)C1CCCN1C(=O)c1cc2c(s1)-c1ccccc1CC2 (stereo not shown)	–	–	IC50 [1, 3]: > 2000 nM
O=C(O)C1CCCN1C(=O)c1cc2c(s1)-c1cc(F)cc(F)c1SC2 (stereo not shown)	< 2000	–	–
O=C(O)C1C(O)CCN1C(=O)c1cc2c(s1)-c1c(F)ccc(F)c1SC2 (stereo not shown)	–	–	IC50 [1, 3]: > 2000 nM
O=C(O)C1CCCN1C(=O)c1cc2c(s1)-c1c(F)ccc(F)c1SC2 (stereo not shown)	< 1000	–	–
CC1(C)Oc2ccccc2-c2sc(C(=O)O)cc21	–	–	IC50 [1, 3]: > 2000 nM
O=C(O)c1cc2c(s1)-c1ccoc1CC2	–	–	EC50 [2, 4]: > 1000 nM
O=C(O)c1cc2c(s1)-c1scnc1CC2	–	–	EC50 [2, 4]: > 1000 nM
CC1(C)Cc2cc(C(=O)O)sc2-c2ccccc21	< 1000	–	–
COc1ccc2c(c1Cl)CCc1cc(C(N)=O)sc1-2	< 50	< 50	–
COCCNC(=O)c1cc2c(s1)-c1ccc(OC)c(Cl)c1CC2	< 1000	< 50	–
COc1ccc2c(c1Cl)CCc1cc(C(=O)NCCN3CCOCC3)sc1-2	< 1000	< 50	–
Cc1ccc(Cl)c2c1-c1sc(C(N)=O)cc1CO2	< 50	< 50	–
Cc1ccc(Cl)c2c1-c1sc(C(=O)O)cc1CO2	< 1000	< 50	–
COc1ccc2c(c1Cl)CCc1cc(C(=O)NCCC#N)sc1-2	< 1000	< 50	–
COc1ccc2c(c1Cl)CCc1cc(C(=O)NCCO)sc1-2	< 1000	< 50	–
N#Cc1cccc2c1OCc1cc(C(N)=O)sc1-2	< 1000	< 50	–
N#Cc1cccc2c1OCc1cc(C(=O)O)sc1-2	< 100	< 50	–
COc1ccc2c(c1C#N)CCc1cc(C(N)=O)sc1-2	< 1000	< 50	–
COc1ccc2c(c1F)CCc1cc(C(N)=O)sc1-2	< 100	< 50	–
O=C(NCCO)c1cc2c(s1)-c1cccc(F)c1CC2	< 1000	< 50	–
COCCNC(=O)c1cc2c(s1)-c1cccc(F)c1CC2	< 100	< 50	–
O=C(NCc1ncco1)c1cc2c(s1)-c1cccc(F)c1CC2	< 100	< 50	–
NC(=O)c1cc2c(s1)-c1ccc(F)c(F)c1OC2	< 50	< 50	–
O=C(O)c1cc2c(s1)-c1ccc(F)c(F)c1OC2	< 1000	< 50	–

Structure (SMILES)	IC50 ([1]; class symbols) [nM]	EC50 ([2]; class symbols) [nM]	also measured
NC(=O)c1cc2c(s1)-c1ccc(F)c(F)c1CC2	< 50	< 50	–
Cc1ccc2c(c1C)CCc1cc(C(=O)O)sc1-2	< 1000	–	–
Cc1ccc2c(c1C)CCc1cc(C(N)=O)sc1-2	< 1000	–	–
CC1(C)Oc2c(F)cc(F)cc2-c2sc(C(=O)O)cc21	< 1000	–	–
NC(=O)c1cc2c(s1)-c1cc(F)cc(F)c1CC2	< 50	< 50	–
O=C(O)c1cc2c(s1)-c1cc(F)cc(F)c1CC2	< 1000	< 50	–
O=C(O)c1cc2c(s1)-c1c(Cl)ccc(Cl)c1OC2	< 100	< 50	–
NC(=O)c1cc2c(s1)-c1c(F)ccc(F)c1OC2	< 50	–	–
CC1(C)Cc2cc(C(N)=O)sc2-c2c(F)ccc(F)c21	< 50	–	–
Cc1ccc(C)c2c1OCc1cc(C(N)=O)sc1-2	< 100	< 50	–
Cc1ccc(C)c2c1OCc1cc(C(=O)O)sc1-2	< 2000	< 50	–
CN(C)c1ccc2c(c1)CCc1cc(C(N)=O)sc1-2	< 2000	–	–
NC(=O)c1cc2c(s1)-c1ccc(Cl)cc1OC2	< 100	< 50	–
O=C(O)c1cc2c(s1)-c1ccc(Cl)cc1OC2	< 100	< 50	–
O=C(O)c1cc2c(s1)-c1ccc(Cl)cc1CC2	< 1000	–	–
NC(=O)c1cc2c(s1)-c1ccc(F)cc1CC2	< 50	< 50	–
O=C(O)c1cc2c(s1)-c1ccc(F)cc1CC2	< 1000	< 50	–
Cc1c(F)ccc2c1OCc1cc(C(N)=O)sc1-2	< 50	< 50	–
Cc1c(F)ccc2c1OCc1cc(C(=O)O)sc1-2	< 1000	< 50	–
Cc1ccc2c(c1)CCc1cc(C(=O)O)sc1-2	< 1000	–	–
NC(=O)c1cc2c(s1)-c1cc(F)c(F)cc1CC2	< 50	< 50	–
O=C(O)c1cc2c(s1)-c1cc(F)c(F)cc1CC2	< 50	< 50	–
Cc1cc2c(cc1C)-c1sc(C(=O)O)cc1CS2	–	–	IC50 [1, 3]: > 2000 nM
Cc1cc2c(cc1C)-c1sc(C(=O)O)cc1CC2	< 2000	–	–

Structure (SMILES)	IC50 ([1]; class symbols) [nM]	EC50 ([2]; class symbols) [nM]	also measured
Cc1cc2c(cc1C)-c1sc(C(N)=O)cc1CC2	< 2000	–	–
O=C(O)c1cc2c(s1)-c1c(F)cc(F)cc1OC2	< 2000	–	–
O=C(O)c1cc2c(s1)-c1c(F)cc(F)cc1SC2	< 1000	–	–
CC1(C)Cc2cc(C(=O)O)sc2-c2cc(Br)ccc21	–	–	IC50 [1, 5]: > 2000 nM
NC(=O)c1cc2c(s1)-c1cc(Br)cc(Cl)c1OC2	< 1000	< 50	–
O=C(O)c1cc2c(s1)-c1cc(Br)cc(Cl)c1OC2	< 50	< 50	–
NC(=O)c1cc(F)c2c(c1)-c1sc(C(=O)O)cc1CO2	–	–	IC50 [1, 3]: > 2000 nM
NC(=O)c1cc2c(s1)-c1cc(Cl)ccc1OC2	< 1000	–	–
O=C(O)c1cc2c(s1)-c1cc(Cl)ccc1SC2	< 2000	–	–
NC(=O)c1cc2c(s1)-c1cc(Cl)cc(F)c1OC2	< 100	< 50	–
N#Cc1ccc2c(c1)-c1sc(C(=O)O)cc1CO2	–	–	IC50 [1, 3]: > 2000 nM
N#Cc1cc(F)c2c(c1)-c1sc(C(=O)O)cc1CO2	< 1000	–	–
CC1Oc2ccc(F)cc2-c2sc(C(=O)O)cc21 (stereo not shown)	< 1000	–	–
COc1ccc2c(c1)-c1sc(C(=O)O)cc1CO2	–	–	IC50 [1, 3]: > 2000 nM
Cc1ccc2c(c1)-c1sc(C(=O)O)cc1CO2	< 1000	< 50	–
Cc1ccc2c(c1)-c1sc(C(=O)O)cc1CS2	–	–	IC50 [1, 5]: > 2000 nM
Cc1ccc2c(c1C)-c1sc(C(=O)O)cc1CC2	< 2000	–	–
Cc1ccc2c(c1C)-c1sc(C(N)=O)cc1CC2	< 1000	–	–
O=C(O)c1cc2c(s1)-c1c(cccc1C(F)(F)F)OC2	< 1000	< 50	–
NC(=O)c1cc2c(s1)-c1c(cccc1C(F)(F)F)OC2	< 50	< 50	–
O=C(O)c1cc2c(s1)-c1c(Br)cccc1CC2	–	–	IC50 [1, 3]: > 2000 nM
N#Cc1cccc2c1-c1sc(C(=O)O)cc1CC2	–	–	IC50 [1, 3]: > 2000 nM
Cc1cccc2c1-c1sc(C(=O)O)cc1CO2	–	–	IC50 [1, 5]: > 2000 nM
COc1ccc2c(c1Cl)CCc1cc(C(=O)NCCc3nnn[nH]3)sc1-2	< 1000	< 50	–

Structure (SMILES)	IC50 ([1]; class symbols) [nM]	EC50 ([2]; class symbols) [nM]	also measured
O=C(NCCc1nnn[nH]1)c1cc2c(s1)-c1cccc(F)c1CC2	< 1000	< 50	–
CN(C)CCNC(=O)c1cc2c(s1)-c1ccccc1CC2	–	–	IC50 [1, 3]: > 2000 nM
N#CCCNC(=O)c1cc2c(s1)-c1cccc(F)c1CC2	< 100	< 100	–
O=C(NCCN1CCOCC1)c1cc2c(s1)-c1ccccc1CC2	–	–	IC50 [1, 3]: > 2000 nM
CS(=O)(=O)NC(=O)c1cc2c(s1)-c1ccccc1CC2	–	–	IC50 [1, 3]: > 2000 nM
CCCCNC(=O)c1cc2c(s1)-c1ccccc1CC2	< 1000	–	–
CCNC(=O)c1cc2c(s1)-c1ccccc1CC2	< 1000	–	–
O=C(NS(=O)(=O)O)c1cc2c(s1)-c1ccccc1CC2	< 2000	–	–
COCC1CCCN1C(=O)c1cc2c(s1)-c1cc(F)cc(F)c1SC2 (stereo not shown)	–	–	IC50 [1, 3]: > 2000 nM
CCOC(=O)c1cc2c(s1)-c1cc(F)cc(Cl)c1SC2	–	–	IC50 [1, 4]: > 2000 nM
CCOC(=O)c1cc2c(s1)-c1cccc(C#N)c1CC2	–	–	IC50 [1, 3]: > 2000 nM
CCOC(=O)c1cc2c(s1)-c1ccc(C)c(F)c1CC2	< 1000	–	–
CCOC(=O)c1cc2c(s1)-c1ccc(Cl)cc1CC2	–	–	IC50 [1, 3]: > 2000 nM
CCOC(=O)c1cc2c(s1)-c1ccc(C#N)cc1CC2	–	–	IC50 [1, 3]: > 2000 nM
CCOC(=O)c1cc2c(s1)-c1ccc(C)cc1CC2	–	–	IC50 [1, 3]: > 2000 nM
CCOC(=O)c1cc2c(s1)-c1cc(F)ccc1OC2C (stereo not shown)	–	–	IC50 [1, 3]: > 2000 nM
CCOC(=O)c1cc2c(s1)-c1cc(F)ccc1OC2	–	–	IC50 [1, 5]: > 2000 nM
COC(=O)c1cc2c(s1)-c1ccccc1OC2	< 1000	–	–
COC(=O)c1cc2c(s1)-c1ccccc1CC2	< 1000	< 50	–
CC(C)(C)OC(=O)CC1CCCN1C(=O)c1cc2c(s1)-c1cc(F)cc(F)c1SC2 (stereo not shown)	–	–	IC50 [1, 3]: > 2000 nM
O=C(O)c1cc2c(s1)-c1sccc1CC2 [4,5-dihydrobenzo[1,2-b:6,5-b′]dithiophene-2-carboxylic acid]	–	< 1000	–
